Assay results from patent publication US10160747B2, “Compounds and methods for kinase modulation, and indications therefor” (Plexxikon Inc., priority 2016, dated 2018).

How the values were obtained:
[1] = tested on: MOLM-14 D835Y (endogenous FLT3 ITD and transfected FLT3 D835Y); assay: MOLM-14 D835Y cell proliferation assay (CellTiter-Glo); assay type: cell-based; details: Homo sapiens, MOLM-14, 72 h; 3 d growth, GMean
Description: (§1) The FLT3 inhibitors may be assessed using the MOLM-14, Acute Myeloid Leukemia cell line that endogenously expresses FLT3 ITD or derivatives of the human FLT3 AML cell line which acquired the D835Y (activation loop) of F691L (gatekeeper) mutation after selection in escalating doses of the FLT3 Inhibitor AC220. FLT3 inhibitors may also be assessed using cells that are engineered to express mutant FLT3. For engineered cells, murine Ba/F3 cells were transfected with full-length FLT3 ITD/D835Y mutations. The parental BA/F3 cells are dependent upon Interleukin-3 (IL-3) for survival, and introduction of the FLT3 constructs rendered these cells dependent upon FLT3 kinase activity when cultured in the absences of IL-3. Engineered BA/F3 cell growth assays can be performed in either the […] of IL-3, to assess the compound inhibition of FLT3 or to detect the presence of off-target activity, respectively. Inhibitors of FLT3 kinase activity reduce or eliminate the FLT3 oncogenic signaling, resulting in reduced cell proliferation. This inhibition is measured as a function of compound concentration to assess IC50 values.
(§2) Cell lines used in proliferation assays are as follows in Table 2:
(§3) Cells were seeded at 1×10^4 cells per well of a 96 well cell culture plate in 50 μl of cell culture medium. Compounds were dissolved in DMSO, typically at a concentration of 0.5 mM and were serially diluted 1:3 for a total of eight points and added to the cells to final concentrations of […], 0.0041, 0.0014 and 0.00046 μM in 100 μl cell culture medium (final concentration 0.2% DMSO). […] The cells were incubated at 37° C., 5% CO2 for three days. CellTiter-Glo Buffer (Promega Cell Viability Assay catalog #G7573) and substrate were equilibrated to room temperature, and enzyme/substrate Recombinant Firefly Luciferase/Beetle Luciferin was reconstituted. The cell plates were equilibrated to room temperature for 30 minutes, then lysed by addition of an equivalent volume of the Celltiter-Glo Reagent. The plate was mixed for 10 minutes on a plate shaker to lyse the cells. The plates were read on a Tecan M1000 using Luminescence protocol modified to read 0.1 s per well. The luminescence reading assesses the ATP content, which correlates directly with cell number such that the reading as a function of compound concentration was used to determine the IC50 value.

[2] = tested on: MOLM-14 F691L (endogenous FLT3 ITD and transfected FLT3 F691L); assay: MOLM-14 F691L cell proliferation assay (CellTiter-Glo); assay type: cell-based; details: Homo sapiens, MOLM-14, 72 h; 3 d growth, GMean
Description: as §1, §2, §3

BA/F3-FLT3-ITD + D835Y = biological target: T1, BA/F3-FLT3-ITD + D835Y (Homo sapiens, UniProt P36888, D835Y, cells depend on it, form not given); assay: Engineered BA/F3 cell growth assay, FLT3 ITD/D835Y; assay type: cell-based, murine; details: 3 d growth
T1 sequence (P36888 with tags, fused parts or gaps INS600HVDFREYEYD/D835Y): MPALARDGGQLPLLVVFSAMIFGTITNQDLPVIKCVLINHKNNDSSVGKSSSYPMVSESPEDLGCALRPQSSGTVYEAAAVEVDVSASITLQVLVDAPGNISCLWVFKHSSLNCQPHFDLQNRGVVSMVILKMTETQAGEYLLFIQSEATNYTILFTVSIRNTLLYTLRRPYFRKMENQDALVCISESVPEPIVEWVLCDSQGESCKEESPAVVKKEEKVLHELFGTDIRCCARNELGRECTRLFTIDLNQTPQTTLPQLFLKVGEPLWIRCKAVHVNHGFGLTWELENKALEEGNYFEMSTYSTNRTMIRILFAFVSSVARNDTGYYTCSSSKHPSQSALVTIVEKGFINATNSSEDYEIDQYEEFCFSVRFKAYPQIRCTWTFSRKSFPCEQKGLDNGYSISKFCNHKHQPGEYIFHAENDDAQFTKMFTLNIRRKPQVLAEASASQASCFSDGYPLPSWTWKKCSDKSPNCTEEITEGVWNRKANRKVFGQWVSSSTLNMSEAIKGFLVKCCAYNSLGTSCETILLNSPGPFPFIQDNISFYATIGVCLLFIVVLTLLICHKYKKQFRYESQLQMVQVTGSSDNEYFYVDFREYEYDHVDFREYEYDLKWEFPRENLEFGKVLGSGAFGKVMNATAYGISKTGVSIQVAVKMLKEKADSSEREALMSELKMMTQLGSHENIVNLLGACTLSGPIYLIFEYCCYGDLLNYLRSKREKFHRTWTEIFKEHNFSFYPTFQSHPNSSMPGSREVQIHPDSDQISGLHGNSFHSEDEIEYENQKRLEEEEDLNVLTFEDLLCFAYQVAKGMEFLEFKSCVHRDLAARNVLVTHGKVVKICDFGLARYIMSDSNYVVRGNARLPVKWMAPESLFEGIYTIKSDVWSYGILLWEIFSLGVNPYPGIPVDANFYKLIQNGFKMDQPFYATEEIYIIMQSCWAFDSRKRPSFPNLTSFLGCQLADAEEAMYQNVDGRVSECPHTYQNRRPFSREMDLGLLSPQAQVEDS
Description: as §1, §2, §3
The BaF3 assays as developed used to generate the data in Tables 7 and 8 are identical and differ only in minor details in regards to vector design, not biological function. Both introduce the FLT3 gene with MV4-11 based ITD duplications and resistance mutations from an exogenous promoter (MSCV and CMV respectively) in the exact same cell line.
As a result of the expressed FLT3 protein, the IL3 factor dependent BaF3 cell clones become IL3-factor independent.
The compounds in Tables 7 and 8 were tested in an identical fashion by incubating such clones in with increasing concentrations. Inhibition of the FLT3 activity by an inhibitor results in factor dependency, which in the absence of IL3 results in cell death in the three day growth assays.

IC50 [1]	IC50 [2]	GI50 (BA/F3-FLT3-ITD + D835Y)	Compound
0.0001 to 10 µM	0.0001 to 10 µM	0.0001 to 10 µM	COc1ncc(NC(=O)Cc2ccc(-c3cnc4[nH]c(-c5ccnc(C#N)c5)cc4c3)nc2)cc1C(F)(F)F [Compound P-0006, 2-[6-[2-(2-cyano-4-pyridyl)-1H-pyrrolo[2,3-b]pyridin-5-yl]-3-pyridyl]-N-[6-methoxy-5-(trifluoromethyl)-3-pyridyl]acetamide]
0.0001 to 10 µM	0.0001 to 10 µM	0.0001 to 10 µM	COc1ccc(-c2cc3cc(-c4ccc(CC(=O)Nc5cnc(OC)c(C(F)(F)F)c5)c(F)c4)cnc3[nH]2)cn1 [Compound P-0007, 2-[2-fluoro-4-[2-(6-methoxy-3-pyridyl)-1H-pyrrolo[2,3-b]pyridin-5-yl]phenyl]-N-[6-methoxy-5-(trifluoromethyl)-3-pyridyl]acetamide]
0.0001 to 10 µM	0.0001 to 10 µM	0.0001 to 10 µM	COc1ncc(NC(=O)Cc2ccc(-c3cnc4[nH]c(C#CC5CC5)cc4c3)cc2)cc1C(F)(F)F [Compound P-0008, 2-[4-[2-(2-cyclopropylethynyl)-1H-pyrrolo[2,3-b]pyridin-5-yl]phenyl]-N-[6-methoxy-5-(trifluoromethyl)-3-pyridyl]acetamide]
0.0001 to 10 µM	0.0001 to 10 µM	0.0001 to 10 µM	COc1cc(-c2cc3cc(-c4ccc(CC(=O)Nc5cnc(OC)c(C(F)(F)F)c5)c(F)c4)cnc3[nH]2)ccn1 [Compound P-0009, 2-[2-fluoro-4-[2-(2-methoxy-4-pyridyl)-1H-pyrrolo[2,3-b]pyridin-5-yl]phenyl]-N-[6-methoxy-5-(trifluoromethyl)-3-pyridyl]acetamide]
0.0001 to 10 µM	0.0001 to 10 µM	0.0001 to 10 µM	COc1ncc(NC(=O)Cc2ccc(-c3cnc4[nH]c(-c5ccc(N6CCOCC6)nc5)cc4c3)cc2F)cc1C(F)(F)F [Compound P-0010, 2-[2-fluoro-4-[2-(6-morpholino-3-pyridyl)-1H-pyrrolo[2,3-b]pyridin-5-yl]phenyl]-N-[6-methoxy-5-(trifluoromethyl)-3-pyridyl]acetamide]
0.0001 to 10 µM	0.0001 to 10 µM	0.0001 to 10 µM	COc1ccc(-c2cc3cc(-c4ccc(CC(=O)Nc5cnc(OC)c(C(F)(F)F)c5)cc4F)cnc3[nH]2)cn1 [Compound P-0012, 2-[3-fluoro-4-[2-(6-methoxy-3-pyridyl)-1H-pyrrolo[2,3-b]pyridin-5-yl]phenyl]-N-[6-methoxy-5-(trifluoromethyl)-3-pyridyl]acetamide]
0.0001 to 10 µM	0.0001 to 10 µM	0.0001 to 10 µM	COc1ncc(NC(=O)Cc2ccc(-c3cnc(Nc4cnn(C(F)F)c4C)nc3)cc2)cc1C(F)(F)F [Compound P-0039, 2-[4-[2-[[1-(difluoromethyl)-5-methyl-pyrazol-4-yl]amino]pyrimidin-5-yl]phenyl]-N-[6-methoxy-5-(trifluoromethyl)-3-pyridyl]acetamide]
0.0001 to 10 µM	0.0001 to 10 µM	0.0001 to 10 µM	O=C(Cc1ccc(-c2cnc3[nH]c(Cl)cc3c2)cc1F)Nc1cc(C(F)(F)F)ccn1 [Compound P-0040, 2-(4-(2-chloro-1H-pyrrolo[2,3-b]pyridin-5-yl)-2-fluorophenyl)-N-(4-(trifluoromethyl)pyridin-2-yl)acetamide]
		0.0001 to 10 µM	O=C(Cc1ccc(-c2cnc3[nH]c(Cl)cc3c2)cc1F)Nc1ccc(C(F)(F)F)cn1 [Compound P-0041, 2-[4-(2-chloro-1H-pyrrolo[2,3-b]pyridin-5-yl)-2-fluoro-phenyl]-N-[5-(trifluoromethyl)-2-pyridyl]acetamide]
0.0001 to 10 µM	0.0001 to 10 µM	0.0001 to 10 µM	CC(C)(C#N)c1ccc(NC(=O)Cc2ccc(-c3cnc4[nH]cc(F)c4c3)cc2F)cn1 [Compound P-0042, N-(6-(2-cyanopropan-2-yl)pyridin-3-yl)-2-(2-fluoro-4-(3-fluoro-1H-pyrrolo[2,3-b]pyridin-5-yl)phenyl)acetamide]
0.0001 to 10 µM	0.0001 to 10 µM	0.0001 to 10 µM	COc1ncc(NC(=O)Cc2ccc(-c3cnc(Nc4cn(C(F)F)nc4C)nc3)cc2)cc1C(F)(F)F [Compound P-0054, 2-[4-[2-[[1-(difluoromethyl)-3-methyl-pyrazol-4-yl]amino]pyrimidin-5-yl]phenyl]-N-[6-methoxy-5-(trifluoromethyl)-3-pyridyl]acetamide]
0.0001 to 10 µM		0.0001 to 10 µM	O=C(Cc1ccc(-c2cnc3[nH]c(-c4ccnc(N5CCOCC5)c4)cc3c2)nc1)Nc1ccnc(C(F)(F)F)c1 [Compound P-0069, 2-[6-[2-(2-morpholino-4-pyridyl)-1H-pyrrolo[2,3-b]pyridin-5-yl]-3-pyridyl]-N-[2-(trifluoromethyl)-4-pyridyl]acetamide]
	0.0001 to 10 µM	0.0001 to 10 µM	Cn1cc(Nc2ncc(-c3ccc(CC(=O)NCc4ccc(Cl)cn4)cc3)cn2)cn1 [Compound P-0114, N-[(5-chloro-2-pyridyl)methyl]-2-[4-[2-[(1-methylpyrazol-4-yl)amino]pyrimidin-5-yl]phenyl]acetamide]
	0.0001 to 10 µM	0.0001 to 10 µM	N#Cc1ccc(-c2cc3cc(-c4ccc(CC(=O)Nc5ccnc(C(F)(F)F)c5)nc4)cnc3[nH]2)cn1 [Compound P-0184, 2-[5-[2-(6-cyano-3-pyridyl)-1H-pyrrolo[2,3-b]pyridin-5-yl]-2-pyridyl]-N-[2-(trifluoromethyl)-4-pyridyl]acetamide]
		0.0001 to 10 µM	N#Cc1cc(-c2cc3cc(-c4ccc(CC(=O)Nc5ccnc(C(F)(F)F)c5)cn4)cnc3[nH]2)ccn1 [Compound P-0185, 2-[6-[2-(2-cyano-4-pyridyl)-1H-pyrrolo[2,3-b]pyridin-5-yl]-3-pyridyl]-N-[2-(trifluoromethyl)-4-pyridyl]acetamide]
0.0001 to 10 µM		0.0001 to 10 µM	COc1cc(-c2cc3cc(-c4ccc(CC(=O)Nc5ccnc(C(F)(F)F)c5)cn4)cnc3[nH]2)ccn1 [Compound P-0186, 2-[6-[2-(2-methoxy-4-pyridyl)-1H-pyrrolo[2,3-b]pyridin-5-yl]-3-pyridyl]-N-[2-(trifluoromethyl)-4-pyridyl]acetamide]
0.0001 to 10 µM		0.0001 to 10 µM	N#Cc1cc(-c2cc3cc(-c4cc(F)c(CC(=O)Nc5cc(C(F)(F)F)ccn5)cc4F)cnc3[nH]2)ccn1 [Compound P-0188, 2-[4-[2-(2-cyano-4-pyridyl)-1H-pyrrolo[2,3-b]pyridin-5-yl]-2,5-difluoro-phenyl]-N-[4-(trifluoromethyl)-2-pyridyl]acetamide]
